Values after ≈ are worked out from the molar mass of the structure shown. “Also recorded” adds a separate entry of the source. Where two headings read alike, the source gives them in different places. Where a SMILES comes first, the peptide text is derived from it. Where only a bound is given, the exact number is not on record here.

The conditions of series [1]: cited from earlier work.
Series [2] relates to EpiIntestinal™ microtissues. Put plainly: RICyt assay: micronuclei (MN) cytome scoring in EpiIntestinal microtissues after 10-day repeated apical exposure.
For series [3] the following is noted: published genotoxic profile; ref Kirkland et al., 2016; EFSA; cited from earlier work.
The test system of series [4] is EpiIntestinal™ microtissues. Put plainly: Cytotoxicity / relative cell count (RCC) of dissociated EpiIntestinal microtissues. To be noted: for Cytotoxicity / cell viability (result in words) / Cytotoxicity: 10-day exposure; for Cytotoxicity / cell viability (result in words): tested doses.
A short description of series [5]: Test material solubility limit for top test concentration. Type of series: physicochemical. To be noted: for solubility: read-out: Concentration above which test material is insoluble (top test concentration).
Series [6] concerns EpiIntestinal™ microtissues.
In another series the test system is topoisomerase II. The arrangement: method as in Maralhas et al., 2006. As to conditions: ref Maralhas et al., 2006; cited from earlier work.
A further series deals with Caco-2. To be noted: ref Schrenk et al., 2022; cited from earlier work.
Series [7] concerns EpiIntestinal™ microtissues. The source holds these as a separate data set.
The subject of series [8] is EpiIntestinal™ microtissues. To be noted: cited from earlier work.
[9] abbreviates: published genotoxic profile, ref Kirkland et al., 2016, EFSA.
Setting [10] is: 10-day exposure, relative to solvent control and historical negative control range (≤2.4 %).
Setting [11] is: 10-day exposure, positive = significant, dose-dependent %MN increase above historical negative range (>2.4 %).

For the molecule `O=Cc1ccc(CO)o1` [5-Hydroxymethyl furfural, 5-Hydroxymethylfurfural], the “In vivo genotoxicity tests” value in series [1] (setting [9]) is listed as “- MN”. In series [2] (10-day exposure), the “Karyorrhectic cells (cytome analysis)” value is “increase in karyorrhectic cell population though not statistically significant”. In series [2] (setting [10]), the “%MN induction (result in words)” value was “consistently low without exceeding the historical negative range”. The “RICyt outcome (genotoxic classification)” value is on record as “Negative” in series [2] (setting [11]) and “clear negative” in series [2] (10-day exposure, positive = significant, dose-dependent %MN increase above historical negative range (>2.4 %), listed as 5-HMF). The “In vitro genotoxicity tests” value in series [3] is “+ Comet and SCE - for MN”. The “Cytotoxicity / cell viability (result in words)” value (shortened to “Cytotoxicity / cell viability”) in [4] is “Cytotoxicity was observed with increasing doses”.

With `COC(=O)[C@H](Cc1ccccc1)NC(=O)[C@@H](N)CC(=O)O` [Aspartame] (H-Asp-Phe-OMe), the “In vivo genotoxicity tests” value in series [1] (setting [9]) was “- MN, comet and CA”. The “%MN induction (result in words)” value in series [2] (setting [10]) is “did not produce significant %MN”. For the same molecule, the “RICyt outcome (genotoxic classification)” value in series [2] (setting [11]) was “Negative”; in series [2] (10-day exposure, positive = significant, dose-dependent %MN increase above historical negative range (>2.4 %), listed as aspartame), “clear negative”. Besides, the “In vitro genotoxicity tests” value in series [3] is “- CA and MN - SCE”. The “Cytotoxicity / cell viability” value in series [4] is “did not produce significant %MN and cytotoxicity”.

For the molecule `COc1cc(/C=C/C(=O)CC(=O)/C=C/c2ccc(O)c(OC)c2)ccc1O` [Curcumin], the solubility in series [5] (in solvent/culture media) turned out to be 50 µg/mL (≈ 136 µM). Besides, the “Karyorrhectic cells (cytome analysis)” value in series [2] (10-day exposure) was “increase in karyorrhectic cells”. Besides, in [2] (setting [10]), the “%MN induction (result in words)” value is on record as “no significant formation of MN”. In [4] (at higher doses / top two concentrations), the Cytotoxicity is listed as 15–20%.

As for `CCOS(C)(=O)=O` [Ethyl methanesulfonate], the “In vivo genotoxicity tests” value in series [1] (in vivo) was “+ MN, comet and CA”. Besides, the “Cytotoxicity / cell viability” value in series [6] is “no observable cytotoxicity”.

Turning to `C=CCc1ccc(O)c(OC)c1` [Eugenol], in series [1] (in vivo), the Genotoxicity in vivo result was “genotoxic positive” and the “In vivo genotoxicity tests” value was “+ MN only at very high doses. Equivocal”. Moreover, in series [2] (10-day exposure), the “Karyorrhectic cells (cytome analysis)” value is reported as “consistent increase in karyorrhectic cell population”. Besides, in series [2] (10-day exposure, relative to solvent control and historical negative control range (≤2.4 %), listed as EUG), the “%MN induction (result in words)” value is listed as “very close to the established 95 % upper confident limits”. Further, in series [2] (setting [11]), the “RICyt outcome (genotoxic classification)” value is reported as “Equivocal”. Besides, the “Topoisomerase II activity” value in the series with topoisomerase II is “could inhibit topoisomerase II activity”. Besides, in [4], the “Cytotoxicity / cell viability” value is reported as “cytotoxicity observed in the tested doses”.

Regarding `Nc1nc(N)nc(N)n1` [Melamine], the solubility in [5] (in solvent/culture media) was determined as 500 µg/mL (≈ 3960 µM). In addition, the “%MN induction (result in words)” value in series [2] (setting [10]) was “not significant and below the historical negative range”. In addition, the “Cytotoxicity / cell viability” value in series [4] is “No genotoxicity nor cytotoxicity were detected”.

Take `CC(C)=CCC/C(C)=C/CC/C(C)=C/CC/C(C)=C/CC/C(C)=C/CC/C(C)=C/CC/C(C)=C/CC1=C(C)C(=O)c2ccccc2C1=O` [Menaquinone 7]: the “Concentration above which test material is insoluble (top test concentration)” value in [5] (in solvent/culture media) amounted to 1000 µg/mL. Moreover, the “Other nuclear anomalies (cytome analysis)” value in series [2] (10-day exposure) is recorded as “not detected”. The “%MN induction (result in words)” value in [2] (setting [10]) is “no significant MN induction”. In addition, the “Cytotoxicity / cell viability” value in series [4] is reported as “no significant MN induction nor cytotoxicity”.

Consider `C[C@H]1C(=O)O[C@@H]2CCN3CC=C(COC(=O)[C@](C)(O)[C@]1(C)O)[C@H]23` [Monocrotaline], for which, in [1] (in vivo), the “In vivo genotoxicity tests” value is “+ DNA adduct, DNA crosslinking and MN”. Besides, in the series on Caco-2, the Gut permeability result is “moderate gut permeability”. For the same molecule, the “%MN increment” value in [7] (human) turned out to be 2.53%. In addition, the “Cytotoxicity / cell viability” value in series [6] is recorded as “without obvious cytotoxicity”.

As to `CCN(N=O)C(N)=O` [N-Ethyl-N-nitrosourea], the “In vivo genotoxicity tests” value in series [1] (setting [9]) was “+ CA, MN, comet”. Moreover, the “Karyorrhectic cells (cytome analysis)” value in [2] (10-day exposure) is given as “non-significant increase in karyorrhectic cells”. Moreover, the “%MN induction (result in words)” value is on record as “statistically significant increases in MN in a dose dependent manner” in series [2] (setting [10]); “positive induction of MN” in [2] (10-day exposure, relative to solvent control and historical negative control range (≤2.4 %), listed as ENU). The “In vitro genotoxicity tests” value in series [3] is “+ MN, CA, MLA, HPRT mutations and UDS”. The Cytotoxicity in series [4] (across tested concentrations (ENU up to 150 µg/ml; GA up to 25 µg/ml)) is at most 15%.

Consider `CC(=O)O[C@H]1C(=O)[C@@]2(C)[C@H]([C@H](OC(=O)c3ccccc3)[C@]3(O)C[C@H](OC(=O)[C@H](O)[C@@H](NC(=O)c4ccccc4)c4ccccc4)C(C)=C1C3(C)C)[C@]1(OC(C)=O)CO[C@@H]1C[C@@H]2O` [Paclitaxel], for which the “In vivo genotoxicity tests” value in [1] (setting [9]) was “+ MN in bone marrow and liver”. In addition, the “Karyorrhectic cells (cytome analysis)” value in series [2] (10-day exposure) is “non-significant but dose dependent increase in karyorrhectic cell population”. For the same molecule, in series [2] (setting [10]), the “%MN induction (result in words)” value was “statistically significant increase in %MN; also recorded: positive induction of MN”. Besides, the “RICyt outcome (genotoxic classification)” value in series [2] (setting [11]) is “true positive”. Also, the “In vitro genotoxicity tests” value in series [3] was “+ MN, polyploidy in a CA test and in MLA”. Further, the “Cytotoxicity / cell viability” value in series [4] is “decrease in cell viability at the top two exposed doses”.

Turning to `c1ccc2c(c1)cc1ccc3cccc4ccc2c1c34` [benzo(a)pyrene], in series [8], the “MN induction / genotoxicity in RICyt platform” value is “genotoxicity was successfully detected”.

`CC(C)[C@@H]1CC[C@@H](C)C[C@H]1O` [d,l-Menthol, D,L-MENTHOL]: the “Concentration above which test material is insoluble (top test concentration)” value in series [5] is 500 µg/mL. Moreover, the “In vivo genotoxicity tests” value in series [1] (in vivo) was “-”. Besides, the “%MN induction (result in words)” value in series [7] is given as “low level of MN which fell within 95 % confident limit of the historical negative control”. Besides, the “Cytotoxicity / cell viability” value in [6] was “no significant impact on cell viability”.

Take `CC[C@]1(O)C[C@@H]2CN(CCc3c([nH]c4ccccc34)[C@@](C(=O)OC)(c3cc4c(cc3OC)N(C)[C@H]3[C@@](O)(C(=O)OC)[C@H](OC(C)=O)[C@]5(CC)C=CCN6CC[C@]43[C@@H]65)C2)C1` [vinblastine]: the “MN induction / genotoxicity in RICyt platform” value in series [8] (previous publication, ref Lim et al., 2022) is “positive induction of MN”.

For `C/C=C\c1cc(OC)c(OC)cc1OC` [β-asarone], in series [1] (setting [9]), the “In vivo genotoxicity tests” value was “MN negative”. The “In vitro genotoxicity tests” value in series [3] is “+ MN, comet and SCE”. For the same molecule, the “RICyt outcome (genotoxic classification)” value in [7] is “Negative”. Also, the “Cytotoxicity / cell viability” value in series [6] is “Increases in cytotoxicity at the top two doses”.

As for Aflatoxin B1, in series [1] (in vivo), the “In vivo genotoxicity tests” value is “+ MN, CA, UDS − comets”. Moreover, in series [2], the “%MN induction (result in words)” value is “significant and dose-dependent formation of MN”; the “RICyt outcome (genotoxic classification)” value was “genotoxicity was successfully detected; also recorded: Positive”. Also, in series [4], the “Loss/reduction in cell viability” value is around 40%.

The values above are taken from publication PMC13289030, “Qualification of the human Reconstructed Intestine Micronuclei Cytome assay for site-of-contact genotoxic hazard identification” (NAM journal, 2025).
